Laboratory results published in ChEMBL document CHEMBL1201862, “PubChem BioAssay data set” (2004).
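Cultured in 96-well plates, cells were exposed to test compound for 48 hours across five concentrations. GI50 marks 50% less growth.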 The source made the active and inactive calls. Cut-off read from the data, not from the text of the source: active = GI50 up to about 1.1 µM and inactive = higher.

Assays:
Assay in all cases: NCI anticancer screen, dose series, 48 h
DMS-114 = system: DMS-114
IGROV-1 = system: IGROV-1
SW-620 = system: SW-620
DMS-273 = system: DMS-273
KM12 = system: KM12
HT-29 = system: HT-29
HCT-116 = system: HCT-116
LOX IMVI = system: LOX IMVI
SNB-75 = system: SNB-75
SNB-19 = system: SNB-19
SF-539 = system: SF-539
OVCAR-5 = system: OVCAR-5
OVCAR-8 = system: OVCAR-8
HCT-15 = system: HCT-15
COLO 205 = system: COLO 205
SK-OV-3 = system: SK-OV-3
SK-MEL-28 = system: SK-MEL-28
Malme-3M = system: Malme-3M
SK-MEL-2 = system: SK-MEL-2
MOLT-4 = system: MOLT-4
EKVX = system: EKVX
DLD-1 = system: DLD-1
NCI-H522 = system: NCI-H522
SF-295 = system: SF-295
M14 = system: M14
NCI-H23 = system: NCI-H23
CAKI-1 = system: CAKI-1
ACHN = system: ACHN
HOP-18 = system: HOP-18
NCI-H226 = system: NCI-H226
CCRF-CEM = system: CCRF-CEM
NCI-H460 = system: NCI-H460
KM-20L2 = system: KM-20L2
HL-60 = system: HL-60
SF-268 = system: SF-268
SNB-78 = system: SNB-78
U-251 = system: U-251
A549 = system: A549
UACC-257 = system: UACC-257
UO-31 = system: UO-31
HCC 2998 = system: HCC 2998
K562 = system: K562
RXF 393 = system: RXF 393
HOP-92 = system: HOP-92
SN12C = system: SN12C
M19-MEL = system: M19-MEL
TK-10 = system: TK-10
786-0 = system: 786-0
A498 = system: A498
LXFL 529 = system: LXFL 529
RPMI-8226 = system: RPMI-8226
OVCAR-4 = system: OVCAR-4
SK-MEL-5 = system: SK-MEL-5
OVCAR-3 = system: OVCAR-3
HOP-62 = system: HOP-62
UACC-62 = system: UACC-62

## C=C(/C=C/C=C(/CCC=C(C)C)COC(C)=O)[C@@H]1CC[C@]2([C@H](CCCO)/C(=C(/C)C=O)CC[C@]2(C)O)[C@@H]1O
DMS-114
  GI50: 14.2 µM (inactive)
IGROV-1
  GI50: 17.2 µM (inactive)
SW-620
  GI50: 2.42 µM (inactive)
DMS-273
  GI50: 2.27 µM (inactive)
KM12
  GI50: 16.2 µM (inactive)
HT-29
  GI50: 14.8 µM (inactive)
HCT-116
  GI50: 19.5 µM (inactive)
LOX IMVI
  GI50: 10.4 µM (inactive)
SNB-75
  GI50: > 10 µM (inactive)
SNB-19
  GI50: 16.1 µM (inactive)
SF-539
  GI50: 14 µM (inactive)
OVCAR-5
  GI50: 39 µM (inactive)
OVCAR-8
  GI50: 22.1 µM (inactive)
HCT-15
  GI50: 14.5 µM
COLO 205
  GI50: 0.558 µM (active)
SK-OV-3
  GI50: 29.1 µM (inactive)
SK-MEL-28
  GI50: 13.7 µM (inactive)
Malme-3M
  GI50: 0.0429 µM (active)
SK-MEL-2
  GI50: 17.9 µM (inactive)
MOLT-4
  GI50: 9.29 µM (inactive)
EKVX
  GI50: 18.1 µM (inactive)
DLD-1
  GI50: 11.9 µM (inactive)
NCI-H522
  GI50: 17.1 µM (inactive)
SF-295
  GI50: 0.973 µM (active)
M14
  GI50: 11 µM (inactive)
NCI-H23
  GI50: 18.8 µM (inactive)
CAKI-1
  GI50: 3.05 µM (inactive)
ACHN
  GI50: 11.5 µM (inactive)
HOP-18
  GI50: 11.5 µM (inactive)
NCI-H226
  GI50: 4.61 µM (inactive)
CCRF-CEM
  GI50: 1.86 µM (inactive)
NCI-H460
  GI50: 0.414 µM (active)
KM-20L2
  GI50: 14.4 µM (inactive)
HL-60
  GI50: 0.912 µM (active)
SF-268
  GI50: 15.7 µM (inactive)
SNB-78
  GI50: > 10 µM (inactive)
U-251
  GI50: 15 µM (inactive)
A549
  GI50: 3.27 µM (inactive)
UACC-257
  GI50: 17.7 µM (inactive)
UO-31
  GI50: 12.7 µM (inactive)
HCC 2998
  GI50: 7.4 µM (inactive)
K562
  GI50: 2.92 µM (inactive)
RXF 393
  GI50: 18.4 µM (inactive)
HOP-92
  GI50: < 0.01 µM (active)
SN12C
  GI50: 15.8 µM (inactive)
M19-MEL
  GI50: 15.7 µM (inactive)
TK-10
  GI50: 14.2 µM (inactive)

## CC(C)C(NCc1c2ccccc2[n+]([O-])c2ccccc12)C(=O)O (centres undefined)
DMS-114
  GI50: 29.6 µM (inactive)
IGROV-1
  GI50: 89.1 µM (inactive)
786-0
  GI50: 54.7 µM (inactive)
SW-620
  GI50: 48.6 µM (inactive)
DMS-273
  GI50: 38.9 µM (inactive)
KM12
  GI50: 52.6 µM (inactive)
HT-29
  GI50: 20 µM (inactive)
HCT-116
  GI50: 25.3 µM (inactive)
LOX IMVI
  GI50: 33.8 µM (inactive)
SNB-75
  GI50: 20.9 µM (inactive)
SNB-19
  GI50: 53.3 µM (inactive)
A498
  GI50: > 100 µM (inactive)
OVCAR-5
  GI50: > 100 µM (inactive)
OVCAR-8
  GI50: 70 µM (inactive)
HCT-15
  GI50: 31 µM
COLO 205
  GI50: > 100 µM (inactive)
SK-OV-3
  GI50: > 100 µM (inactive)
LXFL 529
  GI50: 35.1 µM (inactive)
SK-MEL-28
  GI50: 44.7 µM (inactive)
Malme-3M
  GI50: 92.7 µM (inactive)
SK-MEL-2
  GI50: 81.1 µM (inactive)
MOLT-4
  GI50: 26.2 µM (inactive)
EKVX
  GI50: > 100 µM (inactive)
DLD-1
  GI50: 36.4 µM (inactive)
NCI-H522
  GI50: 34.5 µM (inactive)
SF-295
  GI50: > 100 µM (inactive)
M14
  GI50: > 100 µM (inactive)
NCI-H23
  GI50: 44.1 µM (inactive)
CAKI-1
  GI50: > 100 µM (inactive)
ACHN
  GI50: 42.3 µM (inactive)
HOP-18
  GI50: 14.5 µM (inactive)
RPMI-8226
  GI50: 28.2 µM (inactive)
NCI-H226
  GI50: 35.4 µM (inactive)
OVCAR-4
  GI50: 41.1 µM (inactive)
CCRF-CEM
  GI50: 35.3 µM (inactive)
NCI-H460
  GI50: 68.9 µM (inactive)
KM-20L2
  GI50: 43.8 µM (inactive)
SK-MEL-5
  GI50: 46.5 µM (inactive)
HL-60
  GI50: 30.3 µM (inactive)
SF-268
  GI50: 32.2 µM (inactive)
SNB-78
  GI50: 68.2 µM (inactive)
U-251
  GI50: 38.1 µM (inactive)
A549
  GI50: > 100 µM (inactive)
OVCAR-3
  GI50: 93.1 µM (inactive)
UACC-257
  GI50: > 100 µM (inactive)
UO-31
  GI50: 26.7 µM (inactive)
HCC 2998
  GI50: > 100 µM (inactive)
K562
  GI50: 32.1 µM (inactive)
HOP-62
  GI50: > 100 µM (inactive)
HOP-92
  GI50: 1.8 µM (inactive)
SN12C
  GI50: 44.8 µM (inactive)
UACC-62
  GI50: 56.6 µM (inactive)
TK-10
  GI50: > 100 µM (inactive)

## CC(C)(C)C(=O)OC12/C(=N/O)CCCCCC1c1ccccc12 (centres undefined)
DMS-114
  GI50: 19.4 µM (inactive)
IGROV-1
  GI50: 16.1 µM (inactive)
786-0
  GI50: 17.2 µM (inactive)
SW-620
  GI50: 17.6 µM (inactive)
DMS-273
  GI50: 17.9 µM (inactive)
KM12
  GI50: 16.1 µM (inactive)
HT-29
  GI50: 13.3 µM (inactive)
HCT-116
  GI50: 14.4 µM (inactive)
LOX IMVI
  GI50: 14.3 µM (inactive)
SNB-75
  GI50: 14.5 µM (inactive)
SNB-19
  GI50: 17.4 µM (inactive)
A498
  GI50: 16.9 µM (inactive)
SF-539
  GI50: 23.2 µM (inactive)
OVCAR-5
  GI50: 15.3 µM (inactive)
OVCAR-8
  GI50: 19.3 µM (inactive)
HCT-15
  GI50: 16.2 µM
COLO 205
  GI50: 17 µM (inactive)
SK-OV-3
  GI50: 18.7 µM (inactive)
LXFL 529
  GI50: 16.3 µM (inactive)
SK-MEL-28
  GI50: 18.5 µM (inactive)
Malme-3M
  GI50: 21 µM (inactive)
SK-MEL-2
  GI50: 19.2 µM (inactive)
MOLT-4
  GI50: 14.5 µM (inactive)
DLD-1
  GI50: 19.5 µM (inactive)
NCI-H522
  GI50: 17.8 µM (inactive)
SF-295
  GI50: 15.6 µM (inactive)
M14
  GI50: 16.9 µM (inactive)
NCI-H23
  GI50: 16.6 µM (inactive)
CAKI-1
  GI50: 11.9 µM (inactive)
ACHN
  GI50: 17.9 µM (inactive)
HOP-18
  GI50: 18.8 µM (inactive)
RPMI-8226
  GI50: 11.9 µM (inactive)
NCI-H226
  GI50: 17.7 µM (inactive)
OVCAR-4
  GI50: 18.9 µM (inactive)
CCRF-CEM
  GI50: 23.4 µM (inactive)
NCI-H460
  GI50: 17.3 µM (inactive)
KM-20L2
  GI50: 20.2 µM (inactive)
SK-MEL-5
  GI50: 17.8 µM (inactive)
HL-60
  GI50: 18.2 µM (inactive)
SF-268
  GI50: 16.4 µM (inactive)
SNB-78
  GI50: 25.1 µM (inactive)
U-251
  GI50: 17.7 µM (inactive)
A549
  GI50: 17.8 µM (inactive)
OVCAR-3
  GI50: 17.4 µM (inactive)
UACC-257
  GI50: 15 µM (inactive)
UO-31
  GI50: 17.1 µM (inactive)
HCC 2998
  GI50: > 100 µM (inactive)
K562
  GI50: 19.5 µM (inactive)
HOP-62
  GI50: 21.7 µM (inactive)
RXF 393
  GI50: 19.5 µM (inactive)
SN12C
  GI50: 19 µM (inactive)
M19-MEL
  GI50: 16.6 µM (inactive)
UACC-62
  GI50: 17.4 µM (inactive)
TK-10
  GI50: 15.9 µM (inactive)
